From US20240374879A1, “METHODS AND COMPOSITIONS TO REDUCE CELLULAR DEPOSITION, AND HYDROCEPHALUS SHUNT FAILURE” (Wayne State University, priority 2021, published 2024)

Columns and labels:
A1 reactive astrocytes = experiment: A1 reactive astrocyte attachment on PDMS coated plates (targeted drug delivery); format: cell-based, mouse; details: 30 ng/ml, 48 h
Description: Purification of astrocytes by immunopanning: Astrocytes were purified by immunopanning from post-natal day (P) 5 mouse brains and cultured as previously described (Foo et al., Neuron. 71(5):799-811, 2011). Cerebral cortices were dissected and enzymatically digested using papain at 37° C. and 10% CO2. Tissue was then mechanically triturated with a serological pipette at RT to generate a single-cell suspension. The suspension was filtered and negatively panned for microglia/macrophage cells (CD45), oligodendrocyte progenitor cells (04 hybridoma), and endothelial cells (L1) followed by positive panning for astrocyte cells (ITGB5). Astrocytes were cultured in defined, serum-free medium containing 50% neurobasal, 50% DMEM, 100 U/mL penicillin, 100 μg/mL streptomycin, 1 mM sodium pyruvate, 292 μg/mL L-glutamine, 1×SATO, 5 μg/mL of N-acetyl cysteine, and 5 ng/mL HBEGF.
Targeted drug delivery: A1 reactive astrocytes were generated by culturing the purified astrocytes on PDMS coated tissue culture plates and then treating for 24 h with IL-1α (3 ng/ml, Sigma, 13901), TNF-α (30 ng/ml, Cell Signaling Technology, 8902SF), and C1q (400 ng/ml, MyBioSource, MBS143105). […]

A2 reactive astrocytes = experiment: A2 reactive astrocyte attachment on PDMS coated plates (targeted drug delivery); format: cell-based, mouse; details: 30 ng/ml, 48 h; FIG. 5B

Substance: TGF-β
- A1 astrocyte reactive state (A1 reactive astrocytes): reset A1 astrocytes to a non-reactive state
- attachment of A1 astrocytes on PDMS coated surfaces (A1 reactive astrocytes; FIG. 5A): significantly reducing
- attachment of A2 astrocytes on PDMS coated surfaces (A2 reactive astrocytes): did not induce
